Assay results reported in paper PMC8926291 (Chemical Science, 2022).
Starred links: 1 amine or outer side, 2 acyl side, 3 side chain; linkers in the order of their positions; H or OH if unused. Positions of bridges follow the written chain, without caps; N, C: chain ends. Residues, ends and D or L forms follow the SMILES beside them. *: point of attachment. C18 diacid = O=C(O)CCCCCCCCCCCCCCCCC(=O)*; γGlu = O=C(O)[C@H](CCC(=O)[*:2])N[*:1]; AEEA = NCCOCCOCC(=O)O

Key:
hGIP-R ECD [1] = molecular target: T1, hGIP-R ECD (Homo sapiens, UniProt P48546); assay: single-concentration BLI binding of crude peptides to biotinylated hGIP-R ECD
T1 sequence (P48546 22-138): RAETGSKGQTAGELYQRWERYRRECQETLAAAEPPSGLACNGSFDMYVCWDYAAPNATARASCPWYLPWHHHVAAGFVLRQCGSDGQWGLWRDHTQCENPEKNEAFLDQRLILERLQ

[2] = pharmacokinetic study in rats, i.v. dosing; assay type: in vivo; details: male, Sprague-Dawley, rat, plasma, iv, 2 nmol/kg, mean
[3] = in vitro plasma stability in human plasma; details: 37 °C, over 5 h
hGIP-R ECD [4] = molecular target: T1, hGIP-R ECD; assay: multi-concentration BLI binding of purified peptides to hGIP-R ECD
[5] = cited from earlier work

binding to hGIP-R ECD (in words) (hGIP-R ECD [4]) | Compound | In vitro plasma stability (in words) [3] | also measured
 | CSCC[C@H](NC(C)=O)C(=O)N[C@H]1CSSC[C@@H](C(=O)NCC(=O)N[C@@H](CO)C(=O)NCC(=O)N[C@@H](CO)C(=O)N[C@@H](CC(=O)O)C(=O)N[C@@H](Cc2ccc(O)cc2)C(=O)N[C@@H](CCCCN)C(=O)N[C@@H](CC(=O)O)C(=O)N[C@@H](CC(=O)O)C(=O)N[C@@H](CC(=O)O)C(=O)N[C@@H](CC(=O)O)C(=O)N[C@@H](CCCCN)C(N)=O)NC(=O)[C@H](Cc2ccccc2)NC(=O)[C@@H]2CCCN2C(=O)[C@H](Cc2c[nH]c3ccccc23)NC(=O)[C@H](CC(C)C)NC(=O)[C@H](CC(C)C)NC(=O)[C@H](CO)NC(=O)[C@H](Cc2ccccc2)NC(=O)[C@H](Cc2ccccc2)NC(=O)[C@H](CCCNC(=N)N)NC(=O)[C@H](Cc2ccccc2)NC1=O [B_68] (Ac-MCFRFFSLLWPFCGSGSDYKDDDDK-NH2; disulfide 2-13) |  | binding to hGIP-R ECD (in words) (hGIP-R ECD [1]): did not reveal any binding
 | CSCC[C@H](NC(=O)COCCOCCNC(=O)COCCOCCNC(=O)CC[C@H](NC(=O)CCCCCCCCCCCCCCCCC(=O)O)C(=O)O)C(=O)N[C@H]1CSSC[C@@H](C(=O)NCC(=O)N[C@@H](CO)C(=O)NCC(=O)N[C@@H](CO)C(=O)N[C@@H](CC(=O)O)C(=O)N[C@@H](Cc2ccc(O)cc2)C(=O)N[C@@H](CCCCN)C(=O)N[C@@H](CC(=O)O)C(=O)N[C@@H](CC(=O)O)C(=O)N[C@@H](CC(=O)O)C(=O)N[C@@H](CC(=O)O)C(=O)N[C@@H](CCCCN)C(N)=O)NC(=O)[C@H](Cc2ccccc2)NC(=O)[C@@H]2CCCN2C(=O)[C@H](Cc2c[nH]c3ccccc23)NC(=O)[C@H](CC(C)C)NC(=O)[C@H](CCSC)NC(=O)[C@H](Cc2c[nH]cn2)NC(=O)[C@H](Cc2ccccc2)NC(=O)[C@H](Cc2c[nH]cn2)NC(=O)[C@H]([C@@H](C)O)NC(=O)[C@H](Cc2ccccc2)NC1=O [B_1275.1] ({C18 diacid-γGlu-AEEA-AEEA}-MCFTHFHMLWPFCGSGSDYKDDDDK-NH2; disulfide 2-13) |  | half-life ([2]; t½ (h)): 10.7 h
 | CSCC[C@H](NC(=O)COCCOCCNC(=O)COCCOCCNC(=O)CC[C@H](NC(=O)CCCCCCCCCCCCCCCCC(=O)O)C(=O)O)C(=O)N[C@H]1CSSC[C@@H](C(N)=O)NC(=O)[C@H](Cc2ccccc2)NC(=O)[C@@H]2CCCN2C(=O)[C@H](Cc2c[nH]c3ccccc23)NC(=O)[C@H](CC(C)C)NC(=O)[C@H](CCSC)NC(=O)[C@H](Cc2c[nH]cn2)NC(=O)[C@H](Cc2ccccc2)NC(=O)[C@H](Cc2c[nH]cn2)NC(=O)[C@H]([C@@H](C)O)NC(=O)[C@H](Cc2ccccc2)NC1=O [B_1275.3] ({C18 diacid-γGlu-AEEA-AEEA}-MCFTHFHMLWPFC-NH2; disulfide 2-13) | no decrease in plasma stability | 
 | CC(=O)N[C@@H](C)C(=O)N[C@H]1CSSC[C@@H](C(=O)NCC(=O)N[C@@H](CO)C(=O)NCC(=O)N[C@@H](CO)C(=O)N[C@@H](CC(=O)O)C(=O)N[C@@H](Cc2ccc(O)cc2)C(=O)N[C@@H](CCCCN)C(=O)N[C@@H](CC(=O)O)C(=O)N[C@@H](CC(=O)O)C(=O)N[C@@H](CC(=O)O)C(=O)N[C@@H](CC(=O)O)C(=O)N[C@@H](CCCCN)C(N)=O)NC(=O)[C@H](Cc2ccccc2)NC(=O)[C@@H]2CCCN2C(=O)[C@H](Cc2c[nH]c3ccccc23)NC(=O)[C@H](CC(C)C)NC(=O)[C@H](CC(C)C)NC(=O)[C@H](CC(=O)O)NC(=O)[C@H](Cc2ccccc2)NC(=O)[C@H](Cc2c[nH]cn2)NC(=O)[C@H]([C@@H](C)O)NC(=O)[C@H](Cc2ccccc2)NC1=O [B_1275.4] (Ac-ACFTHFDLLWPFCGSGSDYKDDDDK-NH2; disulfide 2-13) | no decrease in plasma stability | half-life ([2]; t½ (min)): 0.0583 h
 | CC(=O)N[C@@H](C)C(=O)N[C@H]1CSSC[C@@H](C(=O)O)NC(=O)[C@H](Cc2ccccc2)NC(=O)[C@@H]2CCCN2C(=O)[C@H](Cc2c[nH]c3ccccc23)NC(=O)[C@H](CC(C)C)NC(=O)[C@H](CC(C)C)NC(=O)[C@H](CC(=O)O)NC(=O)[C@H](Cc2ccccc2)NC(=O)[C@H](Cc2c[nH]cn2)NC(=O)[C@H]([C@@H](C)O)NC(=O)[C@H](Cc2ccccc2)NC1=O [B_1275.5] (Ac-ACFTHFDLLWPFC-OH; disulfide 2-13) | no decrease in plasma stability | half-life ([2]; t½ (min)): 0.03 h
 | CC(C)C[C@@H]1NC(=O)[C@H](CC(=O)O)NC(=O)[C@H](Cc2ccccc2)NC(=O)[C@H](Cc2c[nH]cn2)NC(=O)[C@H]([C@@H](C)O)NC(=O)[C@H](Cc2ccccc2)NC(=O)[C@@H](NC(=O)[C@H](C)NC(=O)COCCOCCNC(=O)COCCOCCNC(=O)CC[C@H](NC(=O)CCCCCCCCCCCCCCCCC(=O)O)C(=O)O)CSSC[C@@H](C(=O)O)NC(=O)[C@H](Cc2ccccc2)NC(=O)[C@@H]2CCCN2C(=O)[C@H](Cc2c[nH]c3ccccc23)NC(=O)[C@H](CC(C)C)NC1=O [B_1275.6] ({C18 diacid-γGlu-AEEA-AEEA}-ACFTHFDLLWPFC-OH; disulfide 2-13) | no decrease in plasma stability | half-life ([2]; t½ (h)): 4.2 h
did not show any binding | CC(=O)N[C@@H](C)C(=O)N[C@H]1CSSC[C@@H](C(=O)NCC(=O)N[C@@H](CO)C(=O)NCC(=O)N[C@@H](CO)C(=O)N[C@@H](CC(=O)O)C(=O)N[C@@H](Cc2ccc(O)cc2)C(=O)N[C@@H](CCCCN)C(=O)N[C@@H](CC(=O)O)C(=O)N[C@@H](CC(=O)O)C(=O)N[C@@H](CC(=O)O)C(=O)N[C@@H](CC(=O)O)C(=O)N[C@@H](CCCCN)C(N)=O)NC(=O)[C@@H]2CCCN2C(=O)[C@@H]2CCCN2C(=O)[C@H](Cc2c[nH]c3ccccc23)NC(=O)[C@H](CC(C)C)NC(=O)[C@H](CC(C)C)NC(=O)[C@H](Cc2c[nH]cn2)NC(=O)[C@H](Cc2ccccc2)NC(=O)[C@H](Cc2c[nH]cn2)NC(=O)[C@H]([C@@H](C)O)NC(=O)[C@H](Cc2ccccc2)NC1=O [B_1275.10] (Ac-ACFTHFHLLWPPCGSGSDYKDDDDK-NH2; disulfide 2-13) |  | 
None of the linear variants | Ac-MSFIHWDMLWPFSGSGSDYKDDDDK-NH2 [B_5.2] |  | 
None of the linear variants | Ac-MSFQYFHILWPFSGSGSDYKDDDDK-NH2 [B_3.2] |  | 
None of the linear variants | Ac-MSFRFFSLLWPFSGSGSDYKDDDDK-NH2 [B_68.2] |  | 
None of the linear variants | Ac-MSFTHFHMLWPFSGSGSDYKDDDDK-NH2 [B_1275.2] |  | 
 | semaglutide |  | t1/2 in rats [5]: 7 h
